Test results published in ChEMBL document CHEMBL1122053, “A new, potent, conformationally restricted analogue of amphetamine: 2-amino-1,2-dihydronaphthalene” (1982).
Calls of active or inactive are those of the source. No cut-off for these calls is given here.

Tests used:
Mus musculus [1] = organism: Mus musculus; assay: Evaluated for the spontaneous motor activity in mice and the mean total activity (MTA) was reported; Expressed as counts/90 min/3 mice; type: functional
Mus musculus [2] = organism: Mus musculus; assay: Evaluated for the percentage blockade of activity in mice; type: functional
Rattus norvegicus [3] = assay: Number of rats falling (1) within each stereotypy classification after intraperitoneal administration (110 uM/Kg); continuous sniffing, some arousal; type: functional, organism-based
Rattus norvegicus [4] = assay: Number of rats falling (3) within each stereotypy classification after intraperitoneal administration (110 uM/Kg); continuous sniffing, some head bobbing and weaving (total rats 4); type: functional, organism-based
Mus musculus [5] = assay: Ability to stimulate mice at dose of 8 mg/kg; Slight increase in spontaneous motor activity; type: functional, organism-based; set-up: dose 8 mg/kg
Rattus norvegicus [6] = assay: Number of rats falling (4) within each stereotypy classification after intraperitoneal administration (110 uM/Kg); continuous sniffing, with repetitive sequences of head and limb movements, as well as some licking and rearing (total rats 4); type: functional, organism-based

Work on C[C@H](N)Cc1ccccc1 [DEXTROAMPHETAMINE] yielded an MTA (Mus musculus [1]) of 14356.

In the case of Cl.NC1C=Cc2ccccc2C1 (single isomer, unassigned; (-)), the MTA (Mus musculus [1]) is reported as 8566.

COC(=O)C(C)(N)Cc1ccc(O)cc1.NC1C=Cc2ccccc2C1 (stereo not given) showed a Block of activity (Mus musculus [2]) of 59.3% and an MTA (Mus musculus [1]) of 3491.

In the case of COC(=O)[C@H]1[C@H]2C[C@@H]3c4[nH]c5cc(OC)ccc5c4CCN3C[C@H]2C[C@@H](OC(=O)c2cc(OC)c(OC)c(OC)c2)[C@@H]1OC.Cl.NC1C=Cc2ccccc2C1 (racemic), the Activity (Rattus norvegicus [3]) is reported as “continuous sniffing, some arousal” and the Activity (Rattus norvegicus [4]) is reported as “continuous sniffing, some arousal”.

In the case of NC1CCc2ccccc2C1 (stereo not given), the Activity (Mus musculus [5]) is reported as “Active”.

CC(N)Cc1ccccc1.COC(=O)C(C)(N)Cc1ccc(O)cc1 (stereo not given) was tested, and the Block of activity (Mus musculus [2]) was 64.2% and the MTA (Mus musculus [1]) was 5144.

For NC1C=Cc2ccccc2C1 (racemic), the Activity (Rattus norvegicus [6]) was “continuous sniffing, with repetitive sequences of head and limb movements, as well as some licking and rearing (total rats 4)”.
